This is an account of results in publication PMC12363935, “Unc-51 Like Kinase 3 (ULK3) is essential for autophagy and cell survival in multiple myeloma” (Research Square, 2025).

Structures are written as SMILES.

The data set deals with NTC CTRL U266 MM cells. Description: NTC CTRL U266 in vivo model. The conditions noted are these: 10 mg/kg/day subcutaneously. The text has this: Supplementary Figure 7. ULK3 ablation suppresses MM cell growth. A. Immunoblotting for ULK3 expression in parental, NTC CTRL and ULK3 KO U266 cells. Of note, NTC CTRL and ULK3 KO were used for the in vivo ULK3 KO model. Densitometric quantification values are annotated on the blot. B. Mice (n = 20/group) were tail vein injected […]
with 1 x106 NTC CTRL and ULK3 KO U266 MM cells. […]
onset of the disease compared to NTC CTRL . (C) Representative confocal microscopy images of formalin fixed, paraffin embedded tumors (5-micron sections), stained for human mitochondria (hMITO) as a readout of MM cells colocalization. Alexa Fluor Plus 488 goat anti-mouse were used as secondary antibody. (D) MTS showing the inhibitory profile of MA9060 on NTC CTRL and ULK3 KO for U266 cell line. Treatment with MA9060 (0-100 uM) for 48h show reduced activity of MA9060 in ULK3 KO cell lines. E. Mice were divided respectively in two groups, vehicle control (n = 10, β-HCD Captisol) or MA9-060 (n = 10). Treatment started at day 20 (M-F, 10 mg/kg/day subcutaneously). MA9-060 treatment improves overall survival in the NTC CTRL arm (median 41 days post-tumor […]
38 For MA9 therapy efficacy, mice were treated with vehicle (n=10) or MA9 (10 mg/kg/day, 39 subcutaneously, M-F from day 20; n=10) (Supplementary Fig. 7E, F). Survival and toxicity 40 (weight, clinical signs) was monitored. […]

On to `Cc1cnc(Nc2ccc(C3CCN(C)CC3)c(F)c2)nc1Nc1ccc(Cl)c(NS(=O)(=O)C(C)(C)C)c1` [MA9060], for which the “toxicity (weight loss <20%, ruffled hair)” value was “did not show any signs of toxicity”. Also, the median overall survival (NTC CTRL arm, M-F from day 20) was 41 days.
